Consider four compounds from patent US7531573B2 (priority 1994, dated 2009).

Each structure is given as a SMILES string. Where two headings read alike, the source gives them in different places.

The test system of data set [1] is MM-RU human melanoma cells. The data set can be described thus: SCID mice inoculated with MM-RU human melanoma cells, lung metastases. Format: in vivo. Conditions: 120 mg/Kg subcutaneous daily for 10 weeks. How it is done:
Mice with severe combined immunodeficiency disease (SCID) were inoculated via the lateral tail vein with approximately 2.5×10^6 MM-RU human melanoma cells, a cell line that produces metastases only in the lungs (Byers et al., 1993, Melanoma Res. 3:247-253). Starting on the day of inoculation, subcutaneous injections of either vehicle (control group, n=9) or CLT (120 mg/Kg; treatment group, n=10) was administered daily for a period of 10 weeks. At the end of the 10 week treatment period, the mice were sacrificed and examined for metastases.

Data set [2] concerns NIH 3T3 mouse fibroblast cells. The experiment in a line: Mitogen-induced cell proliferation. Conditions: for inhibition at 10 µM: NIH3T3, read-out: Mitogen-induced cell proliferation % Inhibition; for IC50: NIH3T3, read-out: Mitogen-induced cell proliferation IC50. Format: cell-based. An excerpt: Other cell lines, e.g., cancer cells, endothelial cells and fibroblasts, as well as many others, may be used in the cell proliferation assay. Selection of a particular cell line will depend in part on the desired application, and is well within the capabilities of an ordinarily skilled artisan.

The next data set concerns the target Gardos channel (Homo sapiens, UniProt O15554). The format is binding.
The next data set addresses red cell Gardos channel (Homo sapiens, UniProt O15554). The data set can be described thus: cell-based. Here is the method: CLT and metabolite B (Compound 6) were incubated with a red cell suspension at 20% Hct.
In data set [3] the target is T1, red cell calcium-activated potassium transport (Homo sapiens, UniProt O15554).
T1 construct: endogenous in cells; host or cells: red cells of two normal human subjects
T1 sequence (O15554 whole entry): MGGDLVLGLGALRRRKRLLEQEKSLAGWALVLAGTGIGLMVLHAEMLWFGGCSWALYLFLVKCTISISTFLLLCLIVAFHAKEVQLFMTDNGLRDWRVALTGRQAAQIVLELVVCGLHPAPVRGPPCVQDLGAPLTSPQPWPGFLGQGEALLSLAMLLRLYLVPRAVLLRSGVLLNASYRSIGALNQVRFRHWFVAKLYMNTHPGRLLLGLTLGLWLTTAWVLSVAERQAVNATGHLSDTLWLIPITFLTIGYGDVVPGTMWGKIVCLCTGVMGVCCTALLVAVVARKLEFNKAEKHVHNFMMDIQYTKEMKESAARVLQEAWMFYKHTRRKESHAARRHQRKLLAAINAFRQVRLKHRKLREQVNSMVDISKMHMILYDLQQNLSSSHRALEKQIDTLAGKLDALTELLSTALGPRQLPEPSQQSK
The data set can be described thus: Red cell Ca2+-activated 86Rb influx inhibition after oral Clotrimazole. Format: in vivo. Conditions: for Ca2+-activated 86Rb influx inhibition %: Subject A. How it is done:
Two subjects, […] (A, 72 kg) and […] (D, 56 kg), ingested one 500 mg CLT tablet every twelve hours for six days, corresponding to a daily CLT dose of 14 and 18 mg/kg, respectively.

The target of data set [4] is T1, red cell calcium-activated potassium transport. The description is as above. Format: in vivo. Conditions: Subject B.
The target of data set [5] is Gardos channel of erythrocytes (Homo sapiens, UniProt O15554). The data set can be described thus: cell-based. Conditions: for inhibition at 10 µM: read-out: Gardos Channel % Inhibition.
Gardos channel of erythrocytes, sequence (O15554 whole entry): as above
Another data set is described as follows: clinical. Conditions: human, in vivo, read-out: Levels Plasma; for concentration at 6 day of CLT dosing: CLT day 6; for concentration at 10 day (wash-out): Wash-out day 10; for concentration at 13 day (wash-out): Wash-out day 13; for concentration at 20 day (wash-out): Wash-out day 20. The format is in vivo.
[6] abbreviates: erythrocytes, read-out: Gardos Channel IC50.
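Throughout, for Levels Plasma: oral tablet given every 12 h for six days, about 14 mg/kg per day for this subject, with levels then followed in plasma.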

red cell Gardos channel, sequence (O15554 whole entry): as above
Gardos channel, sequence (O15554 whole entry): as above

As for `Clc1ccccc1C(c1ccccc1)(c1ccccc1)n1ccnc1` [Clotrimazole, reference compound], the “number of microscopic metastases” value in [1] (SCID mice) stood at 7±2. Also, the “number of pleural metastases” value in data set [1] (SCID mice) came out at 2±1. Besides, in [1] (SCID mice), the “systemic metastatic disease or toxicity” value was “did not show any evidence of systemic metastatic disease or toxicity”. For the same compound, in data set [1] (SCID mice), the weight gain entry is given as “gained weight in comparable amounts”. In addition, the “treated animals free of macroscopic metastases” value in data set [1] (n=10) is “half”. Moreover, the “treated animals without evidence of microscopic metastases” value in data set [1] (n=10) is “two”. Moreover, the figures for the inhibition at 10 µM (in data set [2]; against red cell Gardos channel (10 μM)) were 93% and 96.3%, respectively. The “125I-ChTX Binding” value at Gardos channel is 1.000. On Gardos channel, the “Displacement (%)” value is 41.6%. For the same compound, the “concentration at which inhibition of K+ transport reached maximal levels” value on red cell Gardos channel was 5 µM. For the same compound, the “% control” value at red cell Gardos channel (1 nM) came to 100.3%; at red cell Gardos channel (10 nM), 97.6%; at red cell Gardos channel (100 nM), 77.4%; at red cell Gardos channel (500 nM) it was 45.0%; on red cell Gardos channel (1 μM), 21.5%; at red cell Gardos channel (5 μM) it was 3.3%. Besides, the “% control” value on red cell Gardos channel (10 μM) is given as 3.7%. Also, the flux was found to be 1.155 on red cell Gardos channel (1 nM); 1.124 at red cell Gardos channel (10 nM); 0.892 on red cell Gardos channel (100 nM); 0.518 on red cell Gardos channel (500 nM); 0.248 at red cell Gardos channel (1 μM); 0.038 on red cell Gardos channel (5 μM). The flux on red cell Gardos channel (10 μM) turned out to be 0.043. Moreover, the inhibition at 0.001 µM against red cell Gardos channel (1 nM) was -0.3%. Besides, at red cell Gardos channel (10 nM), the inhibition at 0.01 µM turned out to be 2.4%. Moreover, the inhibition at 0.1 µM at red cell Gardos channel (100 nM) came to 22.6%. Further, the inhibition at 0.5 µM against red cell Gardos channel (500 nM) was greater than 50%. Also, the inhibition at 1 µM against red cell Gardos channel (1 μM) was 78.5%. Further, at red cell Gardos channel (5 μM), the inhibition at 5 µM was found to be 96.7%. In addition, the “Ca2+-activated 86Rb influx inhibition %” value worked out at 74 ± 5% in [3] (CLT day 3); 73 ± 4% in [3] (CLT day 6); 71 ± 7% in data set [3] (Wash-out day 6); 75 ± 11% in data set [3] (Wash-out day 10); 58 ± 9% in data set [3] (Wash-out day 13); 0 ± 10% in data set [3] (Wash-out day 20). Besides, the “Ca2+-activated 86Rb influx inhibition %” value came to 80 ± 28% in data set [4] (CLT day 3); 83 ± 7% in data set [4] (CLT day 6); 79 ± 21% in data set [4] (Wash-out day 8); 82 ± 4% in data set [4] (Wash-out day 10); 37 ± 30% in data set [4] (Wash-out day 13); 0 ± 13% in [4] (Wash-out day 20). Moreover, the “persistence of inhibition of calcium-activated potassium transport after the drugs were discontinued” value in data set [3] (two subjects, oral CLT for six days) was “at least 7 days”.

As to `Clc1ccccc1C(c1ccccc1)c1ccccc1` [Compound 17, 2-chlorophenyl-diphenylmethane], the melting point lay in the range of 74 to 76 °C. Besides, in data set [2], the inhibition at 10 µM came to 91.8% and the IC50 turned out to be 3900 nM. Moreover, in data set [5], the IC50 came to 860 nM and the inhibition at 10 µM is 100%. For the same compound, in the data set “clinical” (500 mg, Subject A), the concentration at 6 day of CLT dosing came out at 1800 nM, the concentration at 10 day (wash-out) is less than 100 nM, the concentration at 13 day (wash-out) turned out to be 0 nM and the concentration at 20 day (wash-out) was determined as 0 nM. The concentration at 6 day (wash-out) in the data set “clinical” (500 mg, Subject A, Wash-out day 6) is less than 100 nM. Further, the concentration at 3 day of CLT dosing in “clinical” (500 mg, Subject B, CLT day 3) was 1650 nM. Further, in “clinical” (500 mg, Subject B), the concentration at 6 day of CLT dosing amounted to 2500 nM, the concentration at 10 day (wash-out) was less than 100 nM, the concentration at 13 day (wash-out) was determined as 0 nM and the concentration at 20 day (wash-out) was determined as 0 nM. For the same compound, the concentration at 8 day (wash-out) in “clinical” (500 mg, Subject B, Wash-out day 8) is less than 100 nM. Besides, the concentration at 3 day of CLT dosing in the data set “clinical” (Subject A, CLT day 3, oral CLT 500 mg every twelve hours) stood at 700 nM.

`OC(c1ccccc1)(c1ccccc1)C1CCCCC1` [Compound 88, cyclohexyl-diphenylmethanol] registered a melting point of 76 to 78 °C. Besides, in data set [2], the inhibition at 10 µM stood at 94% and the IC50 is 9500 nM. The IC50 in data set [5] (setting [6]) stood at 862 nM. Further, the inhibition at 10 µM in data set [5] was determined as 99%.

`NC(=O)C(c1ccccc1)(c1ccccc1)c1ccccc1Cl` [Compound 75, (2-chlorophenyl)-diphenylacetamide] registered a melting point of 197 to 198.5 °C. Also, the inhibition at 10 µM in data set [2] is 90%. The IC50 in data set [5] (setting [6]) amounted to 6 nM. The inhibition at 10 µM in data set [5] stood at 98%.

The melting point is the temperature of the solid-liquid transition.
